Measurements reported in patent US20190231748A1, “COMPOSITION FOR VAGINA AND ANTIMICROBIAL AGENT COMBINATION FOR USE IN PREPARING COMPOSITION FOR VAGINA” (Shenzhen Eulikan Biotechnology Co., Ltd., priority 2016, published 2019).

Experiments:
Type in all cases: cell-based
[1] = system: three strains of Escherichia coli isolated from the vaginal secretion of patients with vaginitis; assay: Growth in enrichment broth (turbidity after 24 hours), clinical strains; set-up: key to growth of Escherichia coli, Bacterial strain 1 / growth of Escherichia coli, Bacterial strain 2 / growth of Escherichia coli, Bacterial strain 3: +: means the growth of bacteria; −: means no growth of bacteria; conditions: for growth of Escherichia coli, Bacterial strain 1 / growth of Escherichia coli, Bacterial strain 2 / growth of Escherichia coli, Bacterial strain 3: enrichment broth, 37° C. for 24 hours, turbidity
Source text: (§1) a. Experimental strains, three strains of Escherichia coli and three strains of Staphylococcus aureus, which were all isolated from the vaginal secretion of patients with vaginitis.
(§2) b. Enrichment broth, which contained 1 percent of yeast extract powder, 9 percent of sucrose, 0.025 percent of manganese sulfate (MnSO4.4H2O), 0.058 percent of magnesium sulfate (MgSO4.7H2O), and 0.9 percent of lactic acid, the pH value of the broth was adjusted to 4.8, and the enrichment broth was sterilized for later use;
(§3) (2). Experimental groups: the requirements for aseptic operation technique were strictly followed to prepare the sterile test tubes:
(§4) a. sodium benzoate group: each test tube contained 5 milliliters of enrichment broth, and was added in 0.05 percent (weight/volume) sodium benzoate;
(§5) b. 2-phenylethanol group: each test tube contained 5 milliliters of enrichment broth, and was added in 0.05 percent (weight/volume) of 2-phenylethanol;
(§6) c. sodium propionate group: each test tube contained 5 milliliters of enrichment broth, and was added in 0.25 percent (weight/volume) of sodium propionate;
(§7) d. “a group of the combinations of sodium benzoate and sodium propionate”: each test tube contained 5 milliliters of enrichment broth, and was added in 0.05 percent (weight/volume) of sodium benzoate and 0.25 percent (weight/volume) of sodium propionate;
(§8) e. “a group of the combinations of sodium benzoate and 2-phenylethanol”: each test tube contained 5 milliliters of enrichment broth, and was added in 0.05 percent (weight/volume) of sodium benzoate and 0.05 percent (weight/volume) of 2-phenylethanol;
(§9) f. “a group of the combinations of sodium propionate and 2-phenylethanol”: each test tube contained 5 milliliters of enrichment broth, and was added in 0.25 percent (weight/volume) of sodium propionate and 0.05 percent (weight/volume) of 2-phenylethanol;
(§10) g. “a group of the combinations of sodium benzoate, sodium propionate and 2-phenylethanol”: each test tube contained 5 milliliters of enrichment broth, and was added in 0.05 percent (weight/volume) of sodium benzoate, 0.25 percent (weight/volume) of sodium propionate, and 0.05 percent (weight/volume) of 2-phenylethanol;
(§11) h. positive control: one tube that contained 5 milliliters of enrichment broth without adding in any of the 2-phenylethanol, sodium benzoate, and sodium propionate, but inoculated the suspension of Escherichia coli or Staphylococcus aureus.
(§12) i. negative control: one tube that contained 5 milliliters of enrichment broth without adding in any of the 2-phenylethanol, sodium benzoate, and sodium propionate, and not inoculated the suspension of Escherichia coli or Staphylococcus aureus.
(§13) The requirements for aseptic operation technique were strictly followed to prepare the bacterial suspensions. The colonies of Escherichia coli and Staphylococcus aureus were diluted with physiological saline respectively to prepare bacterial suspension. The turbidities of the Escherichia coli suspension and the Staphylococcus aureus suspension were adjusted to 0.5 MCF (about 10^8 CFU/ml) by a turbidimeter. 1 milliliter of the 0.5 MCF bacterial suspensions were added into 9 milliliters of the enrichment broth respectively, so each bacterial solution was diluted for ten times to contain 10^7 CFU/ml of bacterial organisms.
(§14) The requirements for aseptic operation technique were strictly followed to take 100 microliters of the prepared bacterial suspensions respectively, and to add the bacterial suspensions into the aforesaid test tubes from a to h as well as positive control tube. No bacterial suspension was added into the negative control tube i.
(§15) The above tubes were cultured in a biochemical incubator at 37° C. for 24 hours, then turbidity changes of the test tube solutions were observed and recorded.
(§16) Remark: “+” means the growth of bacteria; “−” means no growth of bacteria.

[2] = system: three strains of Staphylococcus aureus isolated from the vaginal secretion of patients with vaginitis; assay: as above; set-up: key to growth of Staphylococcus aureus, Bacterial strain 1 / growth of Staphylococcus aureus, Bacterial strain 2 / growth of Staphylococcus aureus, Bacterial strain 3: +: means the growth of bacteria; −: means no growth of bacteria; conditions: for growth of Staphylococcus aureus, Bacterial strain 1 / growth of Staphylococcus aureus, Bacterial strain 2 / growth of Staphylococcus aureus, Bacterial strain 3: enrichment broth, 37° C. for 24 hours, turbidity
Source text: as §1, §2, §3, §4, §5, §6, §7, §8, §9, §10, §11, §12, §13, §14, §15, §16

[3] = system: nine strains of Candida albicans; assay: Growth of Candida in enrichment broth after 24 hours, clinical strains; set-up: key to growth of Candida albicans, strain 1 / growth of Candida albicans, strain 2 / growth of Candida albicans, strain 3 / growth of Candida albicans, strain 4 / growth of Candida albicans, strain 5 / growth of Candida albicans, strain 6 / growth of Candida albicans, strain 7 / growth of Candida albicans, strain 8 / growth of Candida albicans, strain 9: +: means the growth of organisms; −: means no growth of organisms; conditions: for growth of Candida albicans, strain 1 / growth of Candida albicans, strain 2 / growth of Candida albicans, strain 3 / growth of Candida albicans, strain 4 / growth of Candida albicans, strain 5 / growth of Candida albicans, strain 6 / growth of Candida albicans, strain 7 / growth of Candida albicans, strain 8 / growth of Candida albicans, strain 9: enrichment broth, 37° C. for 24 hours
Source text: as §2, with “broth:” for “broth,”, “4.5,” for “4.8,”
(2) Experimental groups: the requirements of aseptic operation technique were strictly followed so to prepare the sterile test tubes;
a. sodium benzoate group: each test tube contained 5 milliliters enrichment broth, and was added in 0.025 percent (weight/volume) of sodium benzoate;
b. 2-phenylethanol group: each test tube contained 5 milliliters enrichment broth, and was added in 0.050 percent (weight/volume) of 2-phenylethanol;
c. sodium propionate group: each test tube contained 5 milliliters enrichment broth, and was added in 0.125 percent (weight/volume) of sodium propionate;
d. “a group of the combinations of sodium benzoate and sodium propionate”: each test tube contained 5 milliliters enrichment broth, and was added in 0.025 percent (weight/volume) of sodium benzoate and 0.125 percent (weight/volume) of sodium propionate;
e. “a group of the combinations of sodium benzoate and 2-phenylethanol”: each test tube contained 5 milliliters enrichment broth, and was added in 0.025 percent (weight/volume) of sodium benzoate and 0.050 percent (weight/volume) of 2-phenylethanol;
f. “a group of the combinations of sodium propionate and 2-phenylethanol”: each test tube contained 5 milliliters enrichment broth, and was added in 0.125 percent (weight/volume) of sodium propionate and 0.050 percent (weight/volume) of 2-phenylethanol;
g. “a group of the combinations of sodium benzoate, sodium propionate and 2-phenylethanol”: each test tube contained 5 milliliters enrichment broth, and was added in 0.025 percent (weight/volume) of sodium benzoate, 0.125 percent (weight/volume) of sodium propionate and 0.050 percent (weight/volume) of 2-phenylethanol;
h. positive control: the control tube of enrichment broth without adding in 2-phenylethanol, sodium benzoate, and sodium propionate; but inoculated the suspension of Candida albicans;
i. negative control: the control tube of enrichment broth without adding in 2-phenylethanol, sodium benzoate, and sodium propionate; and without inoculating Candida albicans;
The requirements for aseptic operation technique were strictly followed to prepare the suspension of organism. The colonies of each strain of Candida albicans organism were diluted with physiological saline respectively. The turbidities of the suspensions of Candida albicans organism were adjusted to 0.5 MCF (about 10^8 CFU/ml) by a turbidimeter. 1 milliliter of the 0.5 MCF organism suspension was added into 9 milliliters of enrichment broth. Each suspension was diluted for ten times to contain 10^7 CFU/ml of organisms.
the requirements for aseptic technique were strictly followed to take 100 microliters of the prepared organism suspension respectively and to add the suspension into the test tubes from a to h as well as the positive control tube. No organism suspension was added into the negative control tube i.
The above tubes were cultured in a biochemical incubator at 37° C. for 24 hours. Then the growth of Candida in each tube was observed and recorded.
Remark: “+” means the growth of organisms; “−” means no growth of organisms.

[4] = system: Lactococcus lactis and Lactobacillus jensenii; assay: pH of test gel after co-culture of Lactococcus lactis and Lactobacillus jensenii; conditions: cultivated 32 hours
Source text: (§17) 2.1 Experimental strains: one Lactococcus lactis strain and one Lactobacillus jensenii strain, both were clinical isolates.
(§18) The pH value was adjusted to 5.0.
(§19) 2.4 Experimental procedure: the test gel tubes containing different concentrations of antimicrobial agents, as shown in Tables 1 to 6 were inoculated with 100 microliters of Lactobacillus lactis suspension and 100 microliters of Lactobacillus jensenii suspension at the same time. The turbidities of both suspensions were 0.5 MCF. Then the tubes were cultivated at 37° C. and under 5 percent CO2 for 32 hours. Then the changes of the pH values of gels were tested. The gels were smeared, Gram stained, and microscopically examined for the morphology and quantity of bacteria.

[5] = system: Lactobacillus jensenii; assay: Gram-stained smear of co-culture gel, Gram-positive rods (G+b); conditions: for Smear G^+b: cultivated 32 hours
Source text: as §17, §18, §19

[6] = system: Lactococcus lactis; assay: Gram-stained smear of co-culture gel, Gram-positive cocci (G+c); conditions: for Smear G^+c: cultivated 32 hours
Source text: as §17, §18, §19

[7] = 0.05 percent (weight/volume) in enrichment broth pH 4.8, 37° C. 24 hours

| SMILES | growth of Escherichia coli, Bacterial strain 1 [1] | growth of Escherichia coli, Bacterial strain 2 [1] | growth of Escherichia coli, Bacterial strain 3 [1] | growth of Staphylococcus aureus, Bacterial strain 1 [2] | growth of Staphylococcus aureus, Bacterial strain 2 [2] | growth of Staphylococcus aureus, Bacterial strain 3 [2] | growth of Candida albicans, strain 1 [3] | growth of Candida albicans, strain 2 [3] | growth of Candida albicans, strain 3 [3] | growth of Candida albicans, strain 4 [3] | growth of Candida albicans, strain 5 [3] | growth of Candida albicans, strain 6 [3] | growth of Candida albicans, strain 7 [3] | growth of Candida albicans, strain 8 [3] | growth of Candida albicans, strain 9 [3] | also measured |
| --- | --- | --- | --- | --- | --- | --- | --- | --- | --- | --- | --- | --- | --- | --- | --- | --- |
| O=C([O-])c1ccccc1.[Na+] [a. 0.05% sodium benzoate] | + | + | + | + | + | + |  |  |  |  |  |  |  |  |  |  |
| OCCc1ccccc1 [b. 0.05% 2-phenylethanol] | + | + | + | + | + | + |  |  |  |  |  |  |  |  |  |  |
| CCC(=O)[O-].[Na+] [c. 0.25% sodium propionate] | + | + | + | + | + | + |  |  |  |  |  |  |  |  |  |  |
| O=C([O-])c1ccccc1.[Na+] [d. 0.025% sodium benzoate] |  |  |  |  |  |  | + | + | + | + | + | + | + | + | + |  |
| OCCc1ccccc1 [e. 0.050% 2-phenylethanol] |  |  |  |  |  |  | − | + | + | + | + | + | − | + | + |  |
| CCC(=O)[O-].[Na+] [f. 0.125% sodium propionate] |  |  |  |  |  |  | + | + | − | + | + | + | − | + | − |  |
| O=C([O-])c1ccccc1.[Na+] [sodium benzoate] |  |  |  |  |  |  |  |  |  |  |  |  |  |  |  | pH value ([4]; 0.035 % in test gel): <3.8; pH value ([4]; 0.05 % in test gel): <3.8; pH value ([4]; 0.065 % in test gel): 4.1; pH value ([4]; 0.1 % in test gel): 4.6; Smear G^+b ([5]; 0.035 % in test gel): G^+b+; Smear G^+b ([5]; 0.05 % in test gel): G^+b+; Smear G^+b ([5]; 0.065 % in test gel): G^+b++; inhibition effect on the growth of Lactobacillus ([5]; 0.065 to 0.1 percent): weaker inhibition effect; Smear G^+b ([5]; 0.1 % in test gel): G^+b+++; number of the nine Candida albicans strains that grew ([3]; agent alone, 0.025 percent (weight/volume), broth pH 4.5, 37° C. 24 hours): nine; could inhibit the growth of Escherichia coli (agent alone, words) [1, 7]: no one of the three antimicrobial agents; could inhibit the growth of Staphylococcus aureus (agent alone, words) [2, 7]: no one of the three antimicrobial agents; Smear G^+c ([6]; 0.035 % in test gel): G^+c++++; Smear G^+c ([6]; 0.05 % in test gel): G^+c++++; Smear G^+c ([6]; 0.065 % in test gel): G^+c++; inhibition effect on the growth of Lactococcus lactis ([6]; 0.065 to 0.1 percent): stronger inhibition effect; Smear G^+c ([6]; 0.1 % in test gel): G^+c+ |
